Measurements reported in patent US11485707B2, “Deuterated compounds as rock inhibitors” (Fochon Pharmaceuticals, Ltd., priority 2018, dated 2022).
Structures can show the parent of a compound that is named as a salt.

settings: male Chinchilla rabbits, topical to right eye once daily for 3 days, 30 μL/eye/dose; dosing on day 3 at 24 h; vs control
Protocol: ROCK In Vivo Inhibition Activity-Method C
Eighteen male rabbits were randomly assigned to 3 groups (6 animals/group). […] Clinical observations and ophthalmic examinations were performed once daily. IOP was measured by TONOVET Plus before first dosing, and at 0.5, 2, 4, 6 and 24 h after each first dosing on day 1 and day 3.
The change of IOP % was calculated using the following formula: The change of IOP %(ΔIOP %)=[IOP(time)−IOP(control)]/IOP(control)*100).
Select compounds prepared as described above were assayed according to the biological procedures described in Method C.

| Compound | ΔIOP % [%] |
| --- | --- |
| [2H]c1nccc2cc(NC(=O)[C@]([2H])(CN)c3ccc(C([2H])([2H])OC(=O)c4ccc(C([2H])([2H])[2H])cc4C([2H])([2H])[2H])cc3)ccc12 [Example 23, (S)-(4-(3-amino-1-((isoquinolin-6-yl-1-d)amino)-1-oxopropan-2-yl-2-d)phenyl) methyl-d2 2,4-bis (methyl-d3)benzoate dihydrochloride] | −0.87 |
| [2H]c1nccc2cc(NC(=O)[C@H](CN)c3ccc(C([2H])([2H])OC(=O)c4ccc(C)cc4C)cc3)ccc12 [Example 18, (S)-(4-(3-amino-1-((isoquinolin-6-yl-1-d)amino)-1-oxopropan-2-yl)phenyl) methyl-d2 2,4-dimethylbenzoate] | −1.1 |
| [2H]c1nccc2cc(NC(=O)[C@@]([2H])(c3ccc(C([2H])([2H])OC(=O)c4ccc(C)cc4C)cc3)C([2H])([2H])N)ccc12 [Example 7, (S)-(4-(3-amino-1-((isoquinolin-6-yl-1-d)amino)-1-oxopropan-2-yl-2,3,3-d3)phenyl)methyl-d2 2,4-dimethylbenzoate dihydrochloride] | 0.48 |
| [2H]C([2H])(N)[C@@H](C(=O)Nc1ccc2cnccc2c1)c1ccc(COC(=O)c2ccc(C)cc2C)cc1 [Example 11, (S)-4-(3-amino-1-(isoquinolin-6-ylamino)-1-oxopropan-2-yl-3,3-d2) benzyl 2,4-dimethylbenzoate dihydrochloride] | −9.57 |
| [2H]C([2H])(OC(=O)c1ccc(C)cc1C)c1ccc([C@@H](CN)C(=O)Nc2ccc3cnccc3c2)cc1 [Example 3, (S)-(4-(3-amino-1-(isoquinolin-6-ylamino)-1-oxopropan-2-yl)phenyl)methyl-d2 2,4-dimethylbenzoate] | −5.02 |
| [2H]C([2H])([2H])c1ccc(C(=O)OC([2H])([2H])c2ccc([C@]([2H])(C(=O)Nc3ccc4cnccc4c3)C([2H])([2H])N)cc2)c(C([2H])([2H])[2H])c1 [Example 5, (S)-(4-(3-amino-1-(isoquinolin-6-ylamino)-1-oxopropan-2-yl-2,3,3-d3)phenyl)methyl-d2 2,4-bis(methyl-d3)benzoate dihydrochloride] | 1.19 |
| [2H]C([2H])([2H])c1ccc(C(=O)OCc2ccc([C@H](C(=O)Nc3ccc4cnccc4c3)C([2H])([2H])N)cc2)c(C([2H])([2H])[2H])c1 [Example 16, (S)-4-(3-amino-1-(isoquinolin-6-ylamino)-1-oxopropan-2-yl-3,3-d2)benzyl 2,4-bis(methyl-d3)benzoate dihydrochloride] | −1.44 |
| [2H]C([2H])([2H])c1ccc(C(=O)OC([2H])([2H])c2ccc([C@@]([2H])(CN)C(=O)Nc3ccc4cnccc4c3)cc2)c(C([2H])([2H])[2H])c1 [Example 6, (S)-(4-(3-amino-1-(isoquinolin-6-ylamino)-1-oxopropan-2-yl-2-d)phenyl)methyl-d2 2,4-bis(methyl-d3)benzoate dihydrochloride] | −16.08 |
| [2H]C([2H])(OC(=O)c1ccc(C)cc1C)c1ccc([C@]([2H])(C(=O)Nc2ccc3cnccc3c2)C([2H])([2H])N)cc1 [Example 10, (S)-(4-(3-amino-1-(isoquinolin-6-ylamino)-1-oxopropan-2-yl-2,3,3-d3)phenyl)methyl-d2 2,4-dimethylbenzoate dihydrochloride] | −0.78 |
| [2H]C([2H])([2H])c1ccc(C(=O)OCc2ccc([C@@H](CN)C(=O)Nc3ccc4cnccc4c3)cc2)c(C([2H])([2H])[2H])c1 [Example 14, (S)-4-(3-amino-1-(isoquinolin-6-ylamino)-1-oxopropan-2-yl)benzyl 2,4-bis(methyl-d3)benzoate dihydrochloride] | −5.81 |
| [2H]c1nccc2cc(NC(=O)[C@@H](c3ccc(COC(=O)c4ccc(C)cc4C)cc3)C([2H])([2H])N)ccc12 [Example 4, (S)-4-(3-amino-1-((isoquinolin-6-yl-1-d)amino)-1-oxopropan-2-yl-3,3-d2)benzyl 2,4-dimethylbenzoate dihydrochloride] | −15.63 |
| [2H]C([2H])(OC(=O)c1ccc(C)cc1C)c1ccc([C@@]([2H])(CN)C(=O)Nc2ccc3cnccc3c2)cc1 [Example 9, (S)-(4-(3-amino-1-(isoquinolin-6-ylamino)-1-oxopropan-2-yl-2-d)phenyl)methyl-d2 2,4-dimethylbenzoate dihydrochloride] | −3.06 |
| [2H]c1nccc2cc(NC(=O)[C@H](CN)c3ccc(COC(=O)c4ccc(C([2H])([2H])[2H])cc4C([2H])([2H])[2H])cc3)ccc12 [Example 19, (S)-4-(3-amino-1-((isoquinolin-6-yl-1-d)amino)-1-oxopropan-2-yl)benzyl 2,4-bis(methyl-d3)benzoate dihydrochloride] | −3.3 |
| [2H]c1nccc2cc(NC(=O)[C@@H](c3ccc(C([2H])([2H])OC(=O)c4ccc(C)cc4C)cc3)C([2H])([2H])N)ccc12 [Example 12, (S)-(4-(3-amino-1-((isoquinolin-6-yl-1-d)amino)-1-oxopropan-2-yl-3,3-d2)phenyl)methyl-d2 2,4-dimethylbenzoate dihydrochloride] | −5.23 |
| [2H]c1nccc2cc(NC(=O)[C@]([2H])(CN)c3ccc(C([2H])([2H])OC(=O)c4ccc(C)cc4C)cc3)ccc12 [Example 13, (S)-(4-(3-amino-1-((isoquinolin-6-yl-1-d)amino)-1-oxopropan-2-yl-2-d)phenyl) methyl-d2 2,4-dimethylbenzoate dihydrochloride] | −8.48 |
| [2H]c1nccc2cc(NC(=O)[C@@H](c3ccc(COC(=O)c4ccc(C([2H])([2H])[2H])cc4C([2H])([2H])[2H])cc3)C([2H])([2H])N)ccc12 [Example 21, (S)-4-(3-amino-1-((isoquinolin-6-yl-1-d)amino)-1-oxopropan-2-yl-3,3-d2) benzyl 2,4-bis(methyl-d3)benzoate dihydrochloride] | −5.06 |
| [2H]c1nccc2cc(NC(=O)[C@H](CN)c3ccc(C([2H])([2H])OC(=O)c4ccc(C([2H])([2H])[2H])cc4C([2H])([2H])[2H])cc3)ccc12 [Example 20, (S)-(4-(3-amino-1-((isoquinolin-6-yl-1-d)amino)-1-oxopropan-2-yl)phenyl) methyl-d2 2,4-bis (methyl-d3)benzoate dihydrochloride] | −4.89 |
| Cc1ccc(C(=O)OCc2ccc([C@@H](CN)C(=O)Nc3ccc4cnccc4c3)cc2)c(C)c1.Cl.Cl [Reference compound 1, (S)-4-(3-amino-1-(isoquinolin-6-ylamino)-1-oxopropan-2-yl)benzyl 2,4-dimethylbenzoate dihydrochloride, reference compound] | −4.35 |
| [2H]c1nccc2cc(NC(=O)[C@H](CN)c3ccc(COC(=O)c4ccc(C)cc4C)cc3)ccc12 [Example 1, (S)-4-(3-amino-1-((isoquinolin-6-yl-1-d)amino)-1-oxopropan-2-yl)benzyl 2,4-dimethylbenzoate] | −1.5 |
| [2H]c1nccc2cc(NC(=O)[C@@H](c3ccc(C([2H])([2H])OC(=O)c4ccc(C([2H])([2H])[2H])cc4C([2H])([2H])[2H])cc3)C([2H])([2H])N)ccc12 [Example 22, (S)-(4-(3-amino-1-((isoquinolin-6-yl-1-d)amino)-1-oxopropan-2-yl-3,3-d2)phenyl) methyl-d2 2,4-bis (methyl-d3)benzoate dihydrochloride] | 0.08 |
| [2H]C([2H])([2H])c1ccc(C(=O)OC([2H])([2H])c2ccc([C@@H](CN)C(=O)Nc3ccc4cnccc4c3)cc2)c(C([2H])([2H])[2H])c1 [Example 15, (S)-(4-(3-amino-1-(isoquinolin-6-ylamino)-1-oxopropan-2-yl)phenyl)methyl-d2 2,4-bis(methyl-d3)benzoate dihydrochloride] | −4.25 |
| [2H]C([2H])(OC(=O)c1ccc(C)cc1C)c1ccc([C@H](C(=O)Nc2ccc3cnccc3c2)C([2H])([2H])N)cc1 [Example 8, (S)-(4-(3-amino-1-(isoquinolin-6-ylamino)-1-oxopropan-2-yl-3,3-d2)phenyl)methyl-d2 2,4-dimethylbenzoate dihydrochloride] | −7.52 |
